# Results reported in ChEMBL document CHEMBL5113372, “Paradigm shift of "classical" HDAC inhibitors to "hybrid" HDAC inhibitors in therapeutic interventions” (Eur J Med Chem, 2021).
# Columns and labels:
# A549 [1] = experiment: Antiproliferative activity against human A549 cells assessed as inhibition of cell viability treated for 12 to 48 hrs by MTT assay; format: functional, cell-based
# A549 [2] = experiment: Antitumor activity against human A549 cells xenografted in BALB/c mouse assessed as tumor growth inhibition measured every 2 days for 2 to 3 weeks by caliper method relative to control; format: functional; details: time 2 day
# LNCaP = experiment: Antiproliferative activity against human LNCaP cells expressing androgen receptor assessed as inhibition of cell viability; format: functional, cell-based
# DU-145 [3] = experiment: Antiproliferative activity against human DU-145 assessed as inhibition of cell viability incubated for 72 hrs by MTT/MTS assay; format: functional, cell-based; details: DU-145, 72 h
# Androgen receptor = Androgen receptor (Rattus norvegicus, UniProt P15207); experiment: Displacement of [3H]-mibolerone from rat androgen receptor incubated for 4 hrs by radioligand binding assay
# Histone deacetylase 1 [4] = biological target: T1, Histone deacetylase 1 (Homo sapiens, UniProt Q13547); experiment: Inhibition of HDAC1 (unknown origin) using RHKK(Ac) as substrate incubated for 30 mins by fluorescence based assay
# SK-MEL-5 = experiment: Antitumor activity against human SK-MEL-5 cells xenografted in BALB/c mouse assessed as reduction in tumor volume at 30 mg/kg, ip qd measured after 4 weeks by caliper method relative to control; format: functional; parameters: scale not given: the % may be the effect or the level left
# [5] = Antiproliferative activity against human WM983B cells assessed as cell growth inhibition; format: functional, cell-based
# [6] = biological target: Lysine-specific histone demethylase 1A (Homo sapiens, UniProt O60341); experiment: Inhibition of LSD1 (unknown origin) using diMeK4H31-21 as substrate preincubated for 5 mins followed by substrate addition measured for 5 mins by absorbance based assay
# [7] = biological target: T2, Protein deacetylase HDAC6 (Homo sapiens, UniProt Q9UBN7); experiment: Inhibition of recombinant human HDAC6 expressed in baculovirus infected Hi-5 insect cells using Boc-Lys (epsilon-acetyl)-AMC as substrate incubated for 3 to 24 hrs by fluorescence based assay
# T2 sequence (Q9UBN7 whole entry): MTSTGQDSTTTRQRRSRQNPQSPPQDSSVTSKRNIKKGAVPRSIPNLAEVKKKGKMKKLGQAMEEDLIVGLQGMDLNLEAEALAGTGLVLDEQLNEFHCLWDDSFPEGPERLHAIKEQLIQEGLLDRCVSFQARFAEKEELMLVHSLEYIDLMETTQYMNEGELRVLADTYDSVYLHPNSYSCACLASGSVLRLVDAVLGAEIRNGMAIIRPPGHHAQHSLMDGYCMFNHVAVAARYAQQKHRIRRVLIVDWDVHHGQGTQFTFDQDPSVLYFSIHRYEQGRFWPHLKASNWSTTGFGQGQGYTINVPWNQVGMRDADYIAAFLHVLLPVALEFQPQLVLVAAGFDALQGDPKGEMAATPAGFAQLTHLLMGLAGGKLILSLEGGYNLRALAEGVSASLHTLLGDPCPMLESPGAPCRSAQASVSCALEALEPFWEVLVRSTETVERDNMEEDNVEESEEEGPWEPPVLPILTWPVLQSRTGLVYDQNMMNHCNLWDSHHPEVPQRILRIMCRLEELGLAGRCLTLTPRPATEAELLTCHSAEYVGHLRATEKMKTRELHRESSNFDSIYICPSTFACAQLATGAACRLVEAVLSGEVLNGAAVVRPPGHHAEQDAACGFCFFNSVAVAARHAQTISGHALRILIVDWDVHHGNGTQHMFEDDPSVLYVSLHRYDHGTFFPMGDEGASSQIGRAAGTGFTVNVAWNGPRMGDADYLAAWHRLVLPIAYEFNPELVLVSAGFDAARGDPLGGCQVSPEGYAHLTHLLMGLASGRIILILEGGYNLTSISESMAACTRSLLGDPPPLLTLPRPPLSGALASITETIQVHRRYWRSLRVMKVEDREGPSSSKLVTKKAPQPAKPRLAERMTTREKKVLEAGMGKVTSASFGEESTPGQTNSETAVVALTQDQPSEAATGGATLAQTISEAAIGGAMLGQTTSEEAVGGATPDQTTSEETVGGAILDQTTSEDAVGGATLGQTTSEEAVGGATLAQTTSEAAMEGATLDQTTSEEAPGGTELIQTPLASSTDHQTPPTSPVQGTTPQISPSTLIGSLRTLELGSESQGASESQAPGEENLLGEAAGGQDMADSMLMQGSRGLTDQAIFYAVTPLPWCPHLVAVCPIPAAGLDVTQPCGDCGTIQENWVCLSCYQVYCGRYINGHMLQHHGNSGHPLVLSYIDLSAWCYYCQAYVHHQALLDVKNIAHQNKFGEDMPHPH
# Histone deacetylase 1 [8] = biological target: T1, Histone deacetylase 1; experiment: Inhibition of recombinant human HDAC1 using Boc-Lys (Ac)-AMC as substrate incubated for 60 mins by fluorescence based assay
# SMMC-7721 = experiment: cells; format: functional, cell-based; details: Homo sapiens, SMMC-7721, 48 h
# [9] = biological target: T2, Protein deacetylase HDAC6; experiment: Inhibition of HDAC6 (unknown origin)
# A-431 = experiment: Cytotoxicity against human A-431 cells assessed as cell growth inhibition; format: functional, cell-based
# BT-474 = experiment: Cytotoxicity against human BT-474 cells assessed as cell growth inhibition; format: functional, cell-based
# [10] = biological target: Epidermal growth factor receptor (Homo sapiens, UniProt P00533); experiment: Inhibition of EGFR (unknown origin)
# Histone deacetylase 1 [11] = biological target: T1, Histone deacetylase 1; experiment: Inhibition of HDAC1 (unknown origin)
# NCI-H1975 = experiment: Cytotoxicity against human NCI-H1975 cells assessed as cell growth inhibition; format: functional, cell-based
# SK-BR-3 = experiment: Cytotoxicity against human SK-BR-3 cells assessed as cell growth inhibition; format: functional, cell-based
# A549 [12] = experiment: Cytotoxicity against human A549 cells assessed as cell growth inhibition; format: functional, cell-based
# Vitamin D3 receptor = Vitamin D3 receptor (Homo sapiens, UniProt P11473); experiment: Displacement of fluorescent tracer from VDR (unknown origin) by fluorescence polarisation competition assay
# Jurkat = experiment: Cytotoxicity against human Jurkat cells assessed as cell growth inhibition by trypan blue dye based light microscopy; format: functional
# MCF7 [13] = experiment: Cytotoxicity against human MCF7 cells assessed as cell growth inhibition by trypan blue dye based light microscopy; format: functional
# Histone deacetylase 1 [14] = biological target: T1, Histone deacetylase 1; experiment: Inhibition of recombinant human HDAC1 using fluorogenic substrate measured after 60 mins by fluorescence based assay
# [15] = biological target: T2, Protein deacetylase HDAC6; experiment: Inhibition of HDAC6 (unknown origin) using Boc-Lys(Ac)-7-amino-4-methylcoumarin (BocLys(Ac)-AMC) as substrate incubated for 30 mins by fluorescence based assay
# Histone deacetylase 1 [16] = biological target: T1, Histone deacetylase 1; experiment: Inhibition of HDAC1 (unknown origin) using Boc-Lys(Ac)-7-amino-4-methylcoumarin (BocLys(Ac)-AMC) as substrate incubated for 30 mins by fluorescence based assay
# Histone deacetylase 2 = Histone deacetylase 2 (Homo sapiens, UniProt Q92769); experiment: Inhibition of recombinant human HDAC2 using HDAC substrate incubated for 30 mins by fluorescence based microplate reader analysis
# HeLa = experiment: Antiproliferative activity against human HeLa cells assessed as cell growth inhibition incubated for 72 hrs by CCK-8 assay; format: functional, cell-based
# HepG2 = experiment: Antiproliferative activity against human HepG2 cells assessed as cell growth inhibition incubated for 72 hrs by CCK-8 assay; format: functional, cell-based; details: HepG2, 72 h
# [17] = biological target: T2, Protein deacetylase HDAC6; experiment: Inhibition of recombinant human HDAC6 using HDAC substrate incubated for 30 mins by fluorescence based microplate reader analysis
# MCF7 [18] = experiment: Antiproliferative activity against human MCF7 cells assessed as cell growth inhibition incubated for 72 hrs by CCK-8 assay; format: functional, cell-based; details: MCF7, 72 h
# A549 [19] = experiment: Antiproliferative activity against human A549 cells assessed as cell growth inhibition incubated for 72 hrs by CCK-8 assay; format: functional, cell-based; details: A549, 72 h
# Histone deacetylase 1 [20] = biological target: T1, Histone deacetylase 1; experiment: Inhibition of recombinant human HDAC1 using HDAC substrate incubated for 30 mins by fluorescence based microplate reader analysis
# PC-3 [21] = experiment: Antiproliferative activity against human PC-3 cells assessed as cell growth inhibition incubated for 72 hrs by CCK-8 assay; format: functional, cell-based; details: PC-3, 72 h
# A549 [22] = experiment: Anti-proliferative activity against human A549 cells assessed as cell growth inhibition by MTT assay; format: functional, cell-based
# Histone deacetylase 1 [23] = biological target: T1, Histone deacetylase 1; experiment: Inhibition of recombinant human HDAC1 using Boc-L-Lys (Ac)-AMC as substrate incubated for 35 mins by microplate reader analysis
# DU-145 [24] = experiment: Inhibition of colony formation in human DU-145 cells incubated for 10 days by crystal violet method; format: functional, cell-based; details: DU-145, 240 h
# [25] = biological target: T2, Protein deacetylase HDAC6; experiment: Inhibition of His-tagged recombinant human HDAC6 expressed in baculovirus infected insect cells using Boc-Lys(Ac)-AMC as substrate preincubated for 5 mins followed by substrate addition measured after 30 mins by fluorescence based assay
# Histone deacetylase 1 [26] = biological target: T1, Histone deacetylase 1; experiment: Inhibition of His-tagged recombinant human HDAC1 (482 residues) expressed in baculovirus infected insect cells using FLUOR DE LYS-SIRT1 as substrate preincubated for 5 mins followed by substrate addition measured after 30 mins by fluorescence based assay
# PC-3 [27] = experiment: Inhibition of colony formation in human PC-3 cells incubated for 10 days by crystal violet method; format: functional, cell-based; details: PC-3, 240 h
# DU-145 [28] = experiment: Anti-proliferative activity against human DU-145 cells assessed as cell growth inhibition measured after 72 hrs by SRB assay; format: functional, cell-based; details: DU-145, 72 h
# Histone deacetylase = experiment: Inhibition of pan-HDAC (unknown origin); format: protein assay, Homo sapiens
# T1 sequence (Q13547 whole entry): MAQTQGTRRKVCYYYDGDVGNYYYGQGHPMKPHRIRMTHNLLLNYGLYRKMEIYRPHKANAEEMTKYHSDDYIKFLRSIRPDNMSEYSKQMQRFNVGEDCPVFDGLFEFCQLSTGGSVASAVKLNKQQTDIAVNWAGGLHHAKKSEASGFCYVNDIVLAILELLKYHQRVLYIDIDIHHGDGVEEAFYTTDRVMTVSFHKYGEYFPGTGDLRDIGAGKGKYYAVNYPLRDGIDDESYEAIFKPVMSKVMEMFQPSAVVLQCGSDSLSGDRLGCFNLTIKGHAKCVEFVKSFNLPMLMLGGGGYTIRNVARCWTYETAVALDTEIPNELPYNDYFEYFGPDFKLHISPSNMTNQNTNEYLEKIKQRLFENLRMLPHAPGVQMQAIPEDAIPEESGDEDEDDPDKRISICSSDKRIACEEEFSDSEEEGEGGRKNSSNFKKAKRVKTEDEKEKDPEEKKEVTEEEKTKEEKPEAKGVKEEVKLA
# Histone deacetylase 2, sequence (Q92769 whole entry): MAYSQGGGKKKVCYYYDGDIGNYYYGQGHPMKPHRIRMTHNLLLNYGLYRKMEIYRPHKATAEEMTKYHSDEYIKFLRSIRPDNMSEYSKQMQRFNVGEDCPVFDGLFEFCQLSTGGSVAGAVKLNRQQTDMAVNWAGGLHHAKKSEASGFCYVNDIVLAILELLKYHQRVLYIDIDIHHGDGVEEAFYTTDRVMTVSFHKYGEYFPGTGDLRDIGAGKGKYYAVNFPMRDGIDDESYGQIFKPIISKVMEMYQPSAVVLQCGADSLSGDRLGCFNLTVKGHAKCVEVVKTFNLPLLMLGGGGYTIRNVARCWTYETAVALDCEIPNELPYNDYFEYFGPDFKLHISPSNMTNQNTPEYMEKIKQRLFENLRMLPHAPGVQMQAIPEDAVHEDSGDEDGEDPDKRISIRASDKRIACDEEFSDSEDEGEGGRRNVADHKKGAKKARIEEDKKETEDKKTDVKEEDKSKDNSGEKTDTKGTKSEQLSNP
# Vitamin D3 receptor, sequence (P11473 whole entry): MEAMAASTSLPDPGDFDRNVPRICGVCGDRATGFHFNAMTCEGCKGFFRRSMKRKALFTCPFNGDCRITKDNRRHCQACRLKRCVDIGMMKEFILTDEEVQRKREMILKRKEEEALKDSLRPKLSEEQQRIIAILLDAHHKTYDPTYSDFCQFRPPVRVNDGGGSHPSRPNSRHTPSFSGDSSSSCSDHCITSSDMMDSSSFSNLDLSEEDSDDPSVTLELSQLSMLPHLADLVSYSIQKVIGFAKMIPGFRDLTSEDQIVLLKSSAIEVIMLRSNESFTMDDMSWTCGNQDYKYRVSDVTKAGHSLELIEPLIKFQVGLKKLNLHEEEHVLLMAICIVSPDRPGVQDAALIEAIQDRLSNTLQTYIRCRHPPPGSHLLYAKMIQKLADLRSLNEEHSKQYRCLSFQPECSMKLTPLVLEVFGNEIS
# Androgen receptor, sequence (P15207 whole entry S389L): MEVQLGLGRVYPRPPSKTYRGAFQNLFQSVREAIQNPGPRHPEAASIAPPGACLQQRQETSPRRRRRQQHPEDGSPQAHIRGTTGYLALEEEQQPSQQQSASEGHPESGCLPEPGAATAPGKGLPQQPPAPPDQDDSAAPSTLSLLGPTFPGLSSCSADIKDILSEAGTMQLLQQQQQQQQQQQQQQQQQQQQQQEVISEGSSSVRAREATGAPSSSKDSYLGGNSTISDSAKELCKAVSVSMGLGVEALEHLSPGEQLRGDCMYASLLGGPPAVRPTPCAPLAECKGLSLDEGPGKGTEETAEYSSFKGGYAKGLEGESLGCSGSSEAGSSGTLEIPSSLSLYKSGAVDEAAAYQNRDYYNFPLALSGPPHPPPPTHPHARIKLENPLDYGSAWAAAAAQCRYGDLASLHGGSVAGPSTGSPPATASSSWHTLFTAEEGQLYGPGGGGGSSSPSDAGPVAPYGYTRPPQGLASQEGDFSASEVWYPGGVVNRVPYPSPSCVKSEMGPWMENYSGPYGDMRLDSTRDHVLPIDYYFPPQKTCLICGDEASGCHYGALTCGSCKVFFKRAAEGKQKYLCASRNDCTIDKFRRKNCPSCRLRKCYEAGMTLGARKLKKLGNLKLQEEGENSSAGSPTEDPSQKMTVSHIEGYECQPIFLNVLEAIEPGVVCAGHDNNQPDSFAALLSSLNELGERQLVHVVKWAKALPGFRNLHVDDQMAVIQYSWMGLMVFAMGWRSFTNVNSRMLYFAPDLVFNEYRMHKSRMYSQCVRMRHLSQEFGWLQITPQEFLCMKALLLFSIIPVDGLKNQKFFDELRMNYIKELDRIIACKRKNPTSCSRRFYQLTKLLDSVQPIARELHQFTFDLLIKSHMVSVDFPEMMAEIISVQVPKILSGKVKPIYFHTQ
# Epidermal growth factor receptor, sequence (P00533 whole entry): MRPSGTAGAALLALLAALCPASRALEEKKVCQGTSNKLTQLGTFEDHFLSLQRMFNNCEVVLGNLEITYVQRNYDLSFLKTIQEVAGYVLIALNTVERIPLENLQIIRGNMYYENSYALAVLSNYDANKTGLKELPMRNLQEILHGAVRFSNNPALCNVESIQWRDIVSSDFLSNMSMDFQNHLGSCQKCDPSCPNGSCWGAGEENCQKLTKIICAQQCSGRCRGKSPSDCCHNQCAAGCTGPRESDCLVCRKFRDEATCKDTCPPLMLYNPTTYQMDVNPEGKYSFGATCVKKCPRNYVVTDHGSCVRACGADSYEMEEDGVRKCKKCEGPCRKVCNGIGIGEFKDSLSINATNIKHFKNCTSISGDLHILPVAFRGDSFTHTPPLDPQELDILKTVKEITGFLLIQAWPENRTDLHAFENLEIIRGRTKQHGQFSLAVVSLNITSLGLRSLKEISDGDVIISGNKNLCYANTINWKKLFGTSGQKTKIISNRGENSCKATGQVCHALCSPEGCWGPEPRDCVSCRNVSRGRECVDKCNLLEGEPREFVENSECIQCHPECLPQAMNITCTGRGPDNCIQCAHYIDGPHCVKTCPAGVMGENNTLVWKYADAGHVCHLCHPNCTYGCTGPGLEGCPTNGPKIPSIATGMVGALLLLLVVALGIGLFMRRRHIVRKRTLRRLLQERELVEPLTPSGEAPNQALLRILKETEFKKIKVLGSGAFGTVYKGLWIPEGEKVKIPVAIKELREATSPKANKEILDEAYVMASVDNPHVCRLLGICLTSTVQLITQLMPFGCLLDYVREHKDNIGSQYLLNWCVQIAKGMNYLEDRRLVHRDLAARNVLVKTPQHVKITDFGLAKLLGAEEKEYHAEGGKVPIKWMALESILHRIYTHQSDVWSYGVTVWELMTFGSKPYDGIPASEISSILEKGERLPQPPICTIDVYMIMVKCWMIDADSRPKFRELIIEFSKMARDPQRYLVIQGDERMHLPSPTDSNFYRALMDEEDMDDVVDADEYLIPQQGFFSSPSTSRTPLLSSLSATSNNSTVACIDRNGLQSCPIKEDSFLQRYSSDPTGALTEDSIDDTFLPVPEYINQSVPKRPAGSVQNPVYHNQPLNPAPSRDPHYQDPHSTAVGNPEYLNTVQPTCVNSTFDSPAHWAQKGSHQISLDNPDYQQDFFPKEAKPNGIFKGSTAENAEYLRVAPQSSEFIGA
compound,measurement,setting,value
C=C(c1ccc(C(=O)NO)cc1)c1cc2c(cc1C)C(C)(C)CCC2(C)C,IC50,A549 [1],4.9 µM
same,TGI,A549 [2],53%
CC1(C)C(=O)N(c2ccc(C#N)c(C(F)(F)F)c2)C(=O)N1Cc1ccc(-c2cn(CCCCCCC(=O)NO)nn2)cc1,IC50,LNCaP,1100 nM
same,IC50,DU-145 [3],1000 nM
same,IC50,Androgen receptor,690 nM
Nc1ccccc1NC(=O)c1ccc(CCCC(=O)Nc2ccc(C3CC3N)cc2)cc1 (stereo not drawn),IC50,Histone deacetylase 1 [4],140 nM
same,Activity,SK-MEL-5,<=61%
same,IC50,[5],200 nM
same,IC50,[6],100 nM
COCCOc1cc2ncnc(Nc3ccc(/C=C/C(=O)NO)cc3)c2cc1OCCOC,IC50,[7],2770 nM
CC(C)=CCC/C(C)=C/CC/C(C)=C/CSc1ccccc1C(=O)NCCCCC(=O)NO,IC50,Histone deacetylase 1 [8],58 nM
same,IC50,SMMC-7721,4.93 µM
O=C(CCCCCCN1CC(c2ccc3ncnc(Nc4ccc(Br)cc4F)c3c2)N=N1)NO (stereo not drawn),IC50,[9],4.3 nM
same,IC50,A-431,260 nM
same,IC50,BT-474,5.13 µM
same,IC50,[10],10.3 nM
same,IC50,Histone deacetylase 1 [11],1.1 nM
same,IC50,NCI-H1975,7.85 µM
same,IC50,SK-BR-3,10.9 µM
same,IC50,A549 [12],710 nM
C=C1/C(=C\C=C2/CCC[C@@]3(C)[C@@H]2CC[C@H]3[C@@H](C)/C=C(C)/C=C/C(=O)NO)C[C@H](O)C[C@@H]1O,IC50,Vitamin D3 receptor,87 nM
O=C(CCn1cc(CCn2nc3c(Br)c(Br)c(Br)c(Br)c3n2)nn1)NO,IC50,Jurkat,2870 nM
same,IC50,MCF7 [13],4.26 µM
same,IC50,Histone deacetylase 1 [14],2200 nM
CCC(CC)(c1ccc(OCC(=O)NO)c(C)c1)c1ccc(OCC(O)C(C)(C)C)c(C)c1 (stereo not drawn),IC50,[15],580 µM
same,IC50,Histone deacetylase 1 [16],14.3 µM
C[C@H]1COc2c(N3CCN(C)CC3)c(F)cc3c(=O)c(C(=O)NCC4CN(CC(=O)NO)N=N4)cn1c23 (stereo partly drawn),IC50,Histone deacetylase 2,41 nM
same,IC50,HeLa,1100 nM
same,IC50,HepG2,2300 nM
same,IC50,[17],21 nM
same,IC50,MCF7 [18],300 nM
same,IC50,A549 [19],2100 nM
same,IC50,Histone deacetylase 1 [20],29 nM
same,IC50,PC-3 [21],4.9 µM
O=C(CCCCCOc1ccc(-c2nc3ccccc3c3cc(-c4ccccc4)nn23)cc1)NO,IC50,A549 [22],720 nM
O=C(CCCCc1cn(-c2ccc(C(=O)c3c(-c4ccc(O)cc4)sc4cc(O)ccc34)cc2)nn1)NO,IC50,[9],1300 nM
same,IC50,Histone deacetylase 1 [23],1820 nM
O=C(CCCCCNC(=O)c1cccc2cc3ccccc3nc12)NO,IC50,DU-145 [24],160 nM
same,IC50,[25],2.2 nM
same,IC50,Histone deacetylase 1 [26],16.6 nM
same,IC50,PC-3 [27],310 nM
CC[C@@]1(O)C(=O)OCc2c1cc1n(c2=O)Cc2cc3ccccc3nc2-1 [CAMPTOTHECIN],IC50,DU-145 [28],70 nM
same,IC50,Histone deacetylase,0.05 µM
